From the NIST ThermoML archive (doi:10.1016/j.tca.2014.10.019)
± gives the expanded uncertainty stated by the source.

Experiment: mn = molality of the nth substance listed, in mol/kg
Settings: 100 kPa, Liquid; for speed of sound: Frequency=3 MHz, Sing-around technique in a fixed-path interferometer; for mass density: Vibrating tube method

Row | SMILES | speed of sound (293.15 K, m1 = 0.1) | speed of sound (293.15 K, m1 = 0.2) | speed of sound (293.15 K, m1 = 0.3) | mass density (293.15 K, m1 = 0.1) | mass density (293.15 K, m1 = 0.2) | mass density (293.15 K, m1 = 0.3) | speed of sound (298.15 K, m1 = 0.1) | speed of sound (298.15 K, m1 = 0.2) | speed of sound (298.15 K, m1 = 0.3) | mass density (298.15 K, m1 = 0.1) | mass density (298.15 K, m1 = 0.2) | mass density (298.15 K, m1 = 0.3) | speed of sound (303.15 K, m1 = 0.1) | speed of sound (303.15 K, m1 = 0.2) | mass density (303.15 K, m1 = 0.1) | mass density (303.15 K, m1 = 0.2) | mass density (303.15 K, m1 = 0.3) | speed of sound (308.15 K, m1 = 0.1) | speed of sound (308.15 K, m1 = 0.2) | speed of sound (308.15 K, m1 = 0.3) | further results
1 | [Cl-].[K+] [potassium chloride] + O | 1488.5 ± 1.4 m/s | 1493.8 ± 1.4 m/s | 1497.6 ± 1.4 m/s | 1002.99 ± 0.16 kg/m3 | 1007.72 ± 0.16 kg/m3 | 1013.42 ± 0.17 kg/m3 | 1502.5 ± 1.4 m/s | 1507.3 ± 1.4 m/s | 1511 ± 1.4 m/s | 1001.79 ± 0.16 kg/m3 | 1006.48 ± 0.16 kg/m3 | 1012.13 ± 0.17 kg/m3 | 1514.6 ± 1.4 m/s | 1519.3 ± 1.4 m/s | 1000.36 ± 0.16 kg/m3 | 1005.02 ± 0.16 kg/m3 | 1010.63 ± 0.16 kg/m3 | 1525.1 ± 1.4 m/s | 1529.6 ± 1.4 m/s | 1532.9 ± 1.4 m/s | speed of sound (303.15 K, m1 = 0.3): 1522.8 ± 1.4 m/s; mass density (308.15 K, m1 = 0.1): 998.71 ± 0.16 kg/m3; mass density (308.15 K, m1 = 0.2): 1003.35 ± 0.16 kg/m3; mass density (308.15 K, m1 = 0.3): 1008.94 ± 0.16 kg/m3; speed of sound (313.15 K, m1 = 0.1): 1534 ± 1.4 m/s; speed of sound (313.15 K, m1 = 0.2): 1538.4 ± 1.4 m/s; speed of sound (313.15 K, m1 = 0.3): 1541.6 ± 1.4 m/s; mass density (313.15 K, m1 = 0.1): 996.88 ± 0.16 kg/m3; mass density (313.15 K, m1 = 0.2): 1001.49 ± 0.16 kg/m3; mass density (313.15 K, m1 = 0.3): 1007.02 ± 0.16 kg/m3
2 | [Cl-].[Na+] [sodium chloride] + O | 1489.3 ± 1.4 m/s | 1496.2 ± 1.4 m/s | 1502.3 ± 1.4 m/s | 1002.42 ± 0.16 kg/m3 | 1006.67 ± 0.16 kg/m3 | 1010.64 ± 0.16 kg/m3 | 1503.3 ± 1.4 m/s | 1509.9 ± 1.4 m/s | 1515.8 ± 1.4 m/s | 1001.21 ± 0.16 kg/m3 | 1005.41 ± 0.16 kg/m3 | 1009.34 ± 0.16 kg/m3 | 1515.5 ± 1.4 m/s | 1521.8 ± 1.4 m/s | 999.77 ± 0.16 kg/m3 | 1003.93 ± 0.16 kg/m3 | 1007.81 ± 0.16 kg/m3 | 1525.9 ± 1.4 m/s | 1532 ± 1.4 m/s | 1537.6 ± 1.4 m/s | mass density (308.15 K, m1 = 0.1): 998.12 ± 0.16 kg/m3; mass density (308.15 K, m1 = 0.2): 1002.25 ± 0.16 kg/m3; mass density (308.15 K, m1 = 0.3): 1006.1 ± 0.16 kg/m3; speed of sound (313.15 K, m1 = 0.1): 1534.8 ± 1.4 m/s; speed of sound (313.15 K, m1 = 0.2): 1540.7 ± 1.4 m/s; speed of sound (313.15 K, m1 = 0.3): 1546.2 ± 1.4 m/s; mass density (313.15 K, m1 = 0.1): 996.28 ± 0.16 kg/m3; mass density (313.15 K, m1 = 0.2): 1000.38 ± 0.16 kg/m3; mass density (313.15 K, m1 = 0.3): 1004.2 ± 0.16 kg/m3
